Entries after “also recorded” stand apart in the source; their conditions may differ. Ends that are not written are not given here.
Legend:
Tgat = test: FRET fluorescence nucleotide exchange kinetics assay, Tgat/RhoA; type: biochemical; details: for Ki / inhibition of Tgat GEF activity in kinetics fluorescence assay: RhoA 1 μM, Tgat 0.5 μM; for Ki: GST-TRIP peptides up to 100 μM, read-out: apparent inhibition constant (Kiapp) towards Tgat; for inhibition of Tgat GEF activity in kinetics fluorescence assay: increasing GST-TRIP peptide concentrations up to 100 μM; for efficiency at inhibiting the exchange activity of Tgat relative to TRIPα: from Kiapp values
Procedure: FIG. 4 represents the inhibition of Tgat GEF activity by TRIPT16M/L17S (SEQ ID NO: 41) and TRIPE32G (SEQ ID NO: 40) in vitro. FRET fluorescence exchange assays were performed using constant concentrations of RhoA (1 μM), equal amounts (0.5 μM) of Tgat (left panel) or Trio DH2 (right panel), and increasing concentrations of GST-TRIP peptides, up to 100 μM. Results were expressed as kobs values plotted as a function of the indicated TRIP inhibitor concentration.
FIG. 5 represents a histogram showing the apparent inhibition constants (Ki app) of the TRIP peptides for Tgat and Trio DH2, as indicated. The values and error bars are calculated from at least three independent experiments. Error bars represent standard deviation
Specific exchange rates of Tgat were measured with a fluorescence-based kinetics assay, using a 6His-RhoA construct (gift of Dr Derewenda, Charlottesville University, Virginia) purified as described (Oleksy et al., 2004). Exchange activities were followed by fluorescence resonance energy transfer (FRET) between the GTPase tryptophanes (λex=292 nm) and the methylanthranyloil group of mant-GTP (λem=440 nm) as described (Zeeh et al., 2006). All fluorescence measurements were performed with a CARY Eclipse fluorimeter (Varian). For each kobs determination, RhoA (1 μM) and Tgat (or Trio DH2) were preincubated 3 min at 25° C. in 700 μL reaction buffer (50 mM Tris pH 7.5, 50 mM NaCl, 2 mM MgCl2, 1 mM DTT). The exchange reaction was initiated by 10 μM mant-GTP and measured for 10 min until the plateau was reached. kobs were calculated by fitting the FRET fluorescence changes to a single exponential, using the Kaleidagraph software. Specific exchange activities were calculated by linear regression of kobs values determined for a range of GEF concentrations (0, 0.2, 0.3, 0.4, 0.5 and 1 μM).
Radioactive [3H]-GDP dissociation assays were performed as described (Schmidt et al., 2002). Briefly, 0.15 μM GST-Trio DH2-PH2 was preincubated for 15 min with 3 μM of GST-TRIP inhibitors. The reaction was started by addition of 0.4 μM [3H]-GDP-loaded RhoA and 1 mM GTP, and the reaction mix was filtered after 0 min and 15 min incubation at 25° C. Inhibition efficiency is expressed as the ratio between [3H]-GDP-bound RhoA at 15 and 0 min. Apparent inhibition constants (Kiapp) of TRIP-like peptides were determined from kobs values obtained at increasing peptide concentrations using the above fluorescence nucleotide exchange assay. Kiapp was calculated from the hyperbolic fit of kobs values as a function of the inhibitor concentration as described (Zeeh et al., 2006). TRIP-like peptide specificity was assayed using mant-GTP fluorescence kinetics (λex=360 nm, λem=460 nm) in a FLX800 Microplate Fluorescence Reader (BioTek Instruments). 0.5 μM Tgat, p63RhoGEF, Lbc, and p115RhoGEF, or 0.1 μM Dbl and Trio DH1-PH1 were preincubated 5 min at 25° C. in the presence of 20 μM GST, GST-TRIPE32G or TRIPT16M/L17S and 1 μM mant-GTP. The exchange reaction was initiated by addition of 1 μM RhoA or RhoG and monitored for 10 min.

[1] = test system: Tgat-mediated RhoA activation; test: RhoA activation assay (GST-RBD pull-down) in NIH3T3 cells stably expressing Tgat; type: cell-based; details: NIH3T3-Tgat cells transfected with GFP-tagged peptide
Procedure: The RhoA activation in NIH3T3-Tgat cells stably transfected with GFP, GFP-TRIPE32G or GFPTRIP T16M/L17S was assayed by the GST-RBD-pulldown assay as described in FIG. 2A.
The level of GTP-bound RhoA was measured by a GST pulldown assay as described (Schmidt et al., 2002). Briefly, cell lysates were incubated with glutathione beads coated with the recombinant Rho-binding domain (RBD) of the RhoA specific effector Rhotekin (Cytoskeleton Inc.).

p63RhoGEF = target: T1, p63RhoGEF (Homo sapiens, UniProt Q86VW2); test: mant-GTP fluorescence kinetics specificity assay, RhoA/p63RhoGEF; type: biochemical; details: peptide 20 μM, 0.5 μM GEF, 1 μM RhoA
T1 construct: GST-p63RhoGEF (DH domain) and GST-RhoG were purified as described previously; GST (N); made in house
Procedure: (§1) Figures represent the comparison of TRIPE32G and TRIPT16M/L17S inhibition efficiency on different GTPase/RhoGEF systems, using 1 μM GTPase and 0.5 μM GEF as follows:
(§2) In each assay, the peptides were used at a concentration of 20 μM, corresponding to a 40 fold molar excess of inhibitor versus GEF. All fluorescence kinetics assays were performed using 1 μM mant-GTP. Results are expressed as Relative Fluorescence Units (RFU) versus time. The reaction performed in the absence of GEF reflects the spontaneous exchange activity of the GTPase.
(§3) Radioactive [3H]-GDP dissociation assays were performed as described (Schmidt et al., 2002). […] Inhibition efficiency is expressed as the ratio between [3H]-GDP-bound RhoA at 15 and 0 min. Apparent inhibition constants (Kiapp) of TRIP-like peptides were determined from kobs values obtained at increasing peptide concentrations using the above fluorescence nucleotide exchange assay. Kiapp was calculated from the hyperbolic fit of kobs values as a function of the inhibitor concentration as described (Zeeh et al., 2006). TRIP-like peptide specificity was assayed using mant-GTP fluorescence kinetics (λex=360 nm, λem=460 nm) in a FLX800 Microplate Fluorescence Reader (BioTek Instruments). […] The exchange reaction was initiated by addition of 1 μM RhoA or RhoG and monitored for 10 min.

Trio DH1-PH1 = target: T2, Trio DH1-PH1 (Homo sapiens, UniProt O75962); test: mant-GTP fluorescence kinetics specificity assay, RhoG/Trio DH1-PH1; type: biochemical; details: peptide 20 μM, 1 μM RhoG
T2 construct: Recombinant GST-Trio DH2-PH2, GST-Trio DH1-PH1, GST-Dbl (DH-PH domain); GST (N); made in house
Procedure: as §1, §2, §3

T1 sequence (Q86VW2 160-336 limits assumed): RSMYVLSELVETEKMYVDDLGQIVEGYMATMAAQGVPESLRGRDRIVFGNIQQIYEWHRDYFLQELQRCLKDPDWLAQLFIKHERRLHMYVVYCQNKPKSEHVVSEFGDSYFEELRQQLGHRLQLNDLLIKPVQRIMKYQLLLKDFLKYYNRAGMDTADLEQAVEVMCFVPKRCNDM

| Substance | efficiency relative to TRIPα (Tgat GEF activity) (Tgat) [fold] | Ki (Tgat) [µM] | inhibition of Tgat GEF activity in kinetics fluorescence assay (Tgat) | efficiency at inhibiting the exchange activity of Tgat relative to TRIPα (Tgat) | inhibition of Tgat-mediated activation of RhoA in cells [1] | effect on exchange activity of p63RhoGEF/RhoA (p63RhoGEF) | effect on exchange activity of Trio DH1-PH1/RhoG (Trio DH1-PH1) | inhibition of Tgat GEF activity in kinetics fluorescence assay (Tgat; listed as GST-TRIPα) |
| --- | --- | --- | --- | --- | --- | --- | --- | --- |
| GST-TRIPT16M/L17S | 15 | 5.1 ± 4 | inhibited Tgat GEF activity in a dose-dependent manner; also recorded: low micromolar range | about 15 times | TRIPE32G was more efficient than TRIPT16M/L17S | no effect | no effect | – |
| GST-TRIPE32G (AREGADGAICGYNLATLVMLGPSERVFCPLCGPCSSDIYELM; cysteine pairing not given here; also: GST fusion) | 15 | 7.4 ± 5 | inhibited Tgat GEF activity in a dose-dependent manner; also recorded: low micromolar range | about 15 times | more efficient than TRIPT16M/L17S | no effect | no effect | – |
| AREGADGAICGYNLATLVMLGPSERVFCPLCEPCSSDIYELM [TRIPα] | – | 89 ± 33 | rather ineffective | – | – | – | – | no effect |

Reference: patent publication US8796415B2, “Inhibitors of guanine exchange factors and their use as anticancer drugs” (Centre National de la Recherche Scientifique, priority 2009, dated 2014)
